The values that follow come from US20220185832A1, “CD73 INHIBITORS” (BioArdis LLC, priority 2019, published 2022).

In this experiment the target is T1, Recombinant Human 5′-Nucleotidase (CD73) (Homo sapiens, UniProt P21589).
T1 construct: CHO derived CD73 (Trp27-Lys547), with a C-terminal 6-His tag; 6-His (C); purchased R&D 5795-EN; host or cells: CHO
T1 sequence (P21589 27-547): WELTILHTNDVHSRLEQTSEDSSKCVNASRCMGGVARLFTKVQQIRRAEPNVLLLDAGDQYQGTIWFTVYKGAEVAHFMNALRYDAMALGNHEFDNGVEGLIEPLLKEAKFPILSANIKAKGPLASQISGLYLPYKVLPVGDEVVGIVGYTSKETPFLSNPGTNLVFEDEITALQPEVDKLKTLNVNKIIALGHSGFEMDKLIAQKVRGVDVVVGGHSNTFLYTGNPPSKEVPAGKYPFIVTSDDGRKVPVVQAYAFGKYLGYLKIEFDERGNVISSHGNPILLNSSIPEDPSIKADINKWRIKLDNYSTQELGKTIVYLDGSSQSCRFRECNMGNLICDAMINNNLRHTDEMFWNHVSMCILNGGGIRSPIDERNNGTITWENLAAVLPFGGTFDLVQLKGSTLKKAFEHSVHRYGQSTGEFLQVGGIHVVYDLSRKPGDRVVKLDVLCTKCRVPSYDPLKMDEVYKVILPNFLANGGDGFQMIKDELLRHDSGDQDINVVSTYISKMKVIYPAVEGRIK
The experiment can be described thus: CD73 Enzyme Assay. Conditions: 0.5 nM human CD73, 30 μM AMP, PiColorLock phosphate detection, OD 635 nm; read-out: Potency (IC50). It is filed as biochemical. An excerpt: Soluble recombinant CD73 catalyzes the conversion of adenosine monophosphate (AMP) to adenosine and inorganic phosphate. The phosphate detection reagent, PiColorLock™ (Innova Bioscience, Cat #303-0125) is based on the change in absorbance of the dye malachite green in the presence of inorganic phosphate (Pi) and this property can be exploited to measure any enzyme that generates Pi. Recombinant Human 5′-Nucleotidase (CD73) (R&D #5795-EN, CHO derived CD73 (Trp27-Lys547), with a C-terminal 6-His tag) was used in the enzymatic assay. This assay was run in a 384-well plate format (Corning® NBS™ 384 well plates, Cat #3640). The basic assay procedure involves two steps: 1) Enzyme reaction: The CD73 enzyme (R&D #5795-EN) is incubated in the presence or absence of compounds. AMP (sigma, cat #01930) is added to start the kinase reaction. 2) Detection step: “Gold mix” is added to the assay system, then stabilizers are added. After incubation the absorbance of the solution is read at OD 635 nm. The recorded OD signal is proportional to the enzyme activity.
Briefly, 25 μl human CD73 (0.5 nM final concentration) in the enzymatic buffer solutions (20 mM Tris, 25 mM NaCl, 1 mM MgCl2, pH 7.5, 0.005% Tween-20) were mixed with various concentrations of the test compound (dissolved in 100% DMSO). These solutions were incubated for 15 min at 25° C., and subsequently 25 μl AMP (30 μM final concentration) was added to start the reaction. The final reaction mixture of enzyme-substrate-compound was incubated for 20 min at 37° C. Meanwhile, “Gold mix” was prepared shortly before use by adding 1/100 vol. of accelerator to the PiColorLock™ Gold reagent. 12 μL/well of the “Gold mix” was added to assay plate containing 50 μL enzyme reaction buffer and incubated at 25° C. for 5 min. 5 μL/well stabilizer was added to the assay plate and incubated at 25° C. for 30 min. The absorbance of the well solutions was measured at 635 nm on a Spark 10M instrument (TECAN).
The percent (%) inhibition at each concentration of a compound was calculated relative to the OD value in the Max and Min control wells contained within each assay plate. The Max control wells contained enzyme and substrate as 0% inhibition, and the Min control wells only contained substrate without enzyme as 100% inhibition. The concentrations and percent inhibition values for a test compound are plotted and the concentration of the compound required to achieve 50% inhibition (IC50) was determined with a four-parameter logistic dose response equation.
For the compound `O=P(O)(O)CP(=O)(O)OC[C@H]1O[C@@H](c2ccc3c(NCc4ccccc4)ncnc3c2)[C@@H](F)[C@@H]1O` [Compound 11, [({[(2R,3R,4S,5S)-5-[4-(benzylamino)quinazolin-7-yl]-4-fluoro-3-hydroxyoxolan-2-yl]methoxy}(hydroxy)phosphoryl)methyl]phosphonic acid], the IC50 is more than 1000 nM. With `O=P(O)(O)CP(=O)(O)OC[C@H]1O[C@H](c2ccc3c(NCc4ccccc4)nc(Cl)nc3c2)[C@@H](F)[C@@H]1O` [Compound 14, [({[(2R,3R,4S, 5R)-5-[4-(benzylamino)-2-chloroquinazolin-7-yl]-4-fluoro-3-hydroxyoxolan-2-yl]methoxy}(hydroxy)phosphoryl)methyl]phosphonic acid], the 50% inhibitory concentration (IC50) was more than 1000 nM.

`CN(c1nc(Cl)nc2cc([C@@H]3O[C@H](COP(=O)(O)CP(=O)(O)O)[C@@H](O)[C@@H]3F)ccc12)C1CCCC1` [Compound 15, (((((2R,3R,4S,5S)-5-(2-chloro-4-(cyclopentyl(methyl)amino)quinazolin-7-yl)-4-fluoro-3-hydroxytetrahydrofuran-2-yl)methoxy)(hydroxy)phosphoryl)methyl)phosphonic acid]: the IC50 was 100 to 999 nM. In the case of `N#C[C@@]1(c2ccc3c(NCc4ccccc4)nc(Cl)nc3c2)O[C@H](COP(=O)(O)CP(=O)(O)O)[C@@H](O)[C@H]1O` [Compound 16, (((((2R,3S,4R,5R)-5-(4-(benzylamino)-2-chloroquinazolin-7-yl)-5-cyano-3,4-dihydroxytetrahydrofuran-2-yl)methoxy)(hydroxy)phosphoryl)methyl)phosphonic acid] it was more than 1000 nM; in that of `O=P(O)(O)CP(=O)(O)OC[C@H]1O[C@@H](c2cc3nc(Cl)nc(NCc4ccccc4)c3cc2F)[C@H](O)[C@@H]1O` [Compound 19, (((((2R,3S,4R,5S)-5-(4-(benzylamino)-2-chloro-6-fluoroquinazolin-7-yl)-3,4-dihydroxytetrahydrofuran-2-yl)methoxy)(hydroxy)phosphoryl)methyl)phosphonic acid], 100 to 999 nM. For `CCc1nc(NCc2ccccc2)c2ccc([C@@H]3O[C@H](COP(=O)(O)CP(=O)(O)O)[C@@H](O)[C@H]3O)cc2n1` [Compound 20, [({[(2R,3S,4R,5S)-5-[4-(benzylamino)-2-ethylquinazolin-7-yl]-3,4-dihydroxyoxolan-2-yl]methoxy}(hydroxy)phosphoryl)methyl]phosphonic acid], the concentration for half-maximal inhibition (IC50) was 100 to 999 nM.

For `O=P(O)(O)CP(=O)(O)OC[C@H]1O[C@@H](c2ccc3c(NCC4CCOC4)nc(Cl)nc3c2)[C@H](O)[C@@H]1O` (stereo partly drawn) [Compound 21, [({[(2R,3S,4R,5S)-5-[2-chloro-4-[(oxolan-3-ylmethyl)amino]quinazolin-7-yl]-3,4-dihydroxyoxolan-2-yl]methoxy}(hydroxy)phosphoryl)methyl]phosphonic acid], the 50% inhibitory concentration (IC50) lay within 10 to 99 nM. Take `O=P(O)(O)CP(=O)(O)OC[C@H]1O[C@@H](c2ccc3c(N4CC5CCCC5C4)nc(Cl)nc3c2)[C@H](O)[C@@H]1O` (stereo partly drawn) [Compound 24, [({[(2R,3S,4R,5S)-5-(2-chloro-4-{hexahydro-1H-cyclopenta[c]pyrrol-2-yl}quinazolin-7-yl)-3,4-dihydroxyoxolan-2-yl]methoxy}(hydroxy)phosphoryl)methyl]phosphonic acid]: the half-maximal inhibitory concentration (IC50) is less than 10 nM. `O=P(O)(O)CP(=O)(O)OC[C@H]1O[C@@H](c2ccc3c(NC4CCC(O)CC4)nc(Cl)nc3c2)[C@H](O)[C@@H]1O` (stereo partly drawn) [Compound 26, (((((2R,3S,4R,5S)-5-(2-chloro-4-((4-hydroxycyclohexyl)amino)quinazolin-7-yl)-3,4-dihydroxytetrahydrofuran-2-yl)methoxy)(hydroxy)phosphoryl)methyl)phosphonic acid]: the IC50 was 10 to 99 nM.

With `COC1CCC(Nc2nc(Cl)nc3cc([C@@H]4O[C@H](COP(=O)(O)CP(=O)(O)O)[C@@H](O)[C@H]4O)ccc23)CC1` (stereo partly drawn) [Compound 27, [({[(2R,3S,4R,5S)-5-{2-chloro-4-[(4-methoxycyclohexyl)amino]quinazolin-7-yl}-3,4-dihydroxyoxolan-2-yl]methoxy}(hydroxy)phosphoryl)methyl]phosphonic acid], the half-inhibitory concentration (IC50) lay within 100 to 999 nM. Take `O=P(O)(O)CP(=O)(O)OC[C@H]1O[C@@H](c2ccc3c(N4CCCC4)nc(Cl)nc3c2)[C@H](O)[C@@H]1O` [Compound 29, (((((2R,3S,4R,5S)-5-(2-chloro-4-(pyrrolidin-1-yl)quinazolin-7-yl)-3,4-dihydroxytetrahydrofuran-2-yl)methoxy)(hydroxy)phosphoryl)methyl)phosphonic acid]: the IC50 lay in the range of 10 to 99 nM. `O=P(O)(O)CP(=O)(O)OC[C@H]1O[C@@H](c2ccc3c(N4CCc5ccccc54)nc(Cl)nc3c2)[C@H](O)[C@@H]1O` [Compound 30, (((((2R,3S,4R,5S)-5-(2-chloro-4-(indolin-1-yl)quinazolin-7-yl)-3,4-dihydroxytetrahydrofuran-2-yl)methoxy)(hydroxy)phosphoryl)methyl)phosphonic acid]: the IC50 is 100 to 999 nM. Regarding `O=P(O)(O)CP(=O)(O)OC[C@H]1O[C@@H](c2cccc3c(NCc4ccccc4)nc(Cl)nc23)[C@H](O)[C@@H]1O` [Compound 32, (((((2R,3S,4R,5S)-5-(4-(benzylamino)-2-chloroquinazolin-8-yl)-3,4-dihydroxytetrahydrofuran-2-yl)methoxy)(hydroxy)phosphoryl)methyl)phosphonic acid], the 50% inhibitory concentration (IC50) fell in the range of 100 to 999 nM. The figure for `O=P(O)(O)CP(=O)(O)OC[C@H]1O[C@@H](c2ccc3c(OC4CCCC4)nc(Cl)nc3c2)[C@H](O)[C@@H]1O` [Compound 33, (((((2R,3S,4R,5S)-5-(2-chloro-4-(cyclopentyloxy)quinazolin-7-yl)-3,4-dihydroxytetrahydrofuran-2-yl)methoxy)(hydroxy)phosphoryl)methyl)phosphonic acid] is 100 to 999 nM; for `C[C@@]1(O)[C@H](O)[C@@H](COP(=O)(O)CP(=O)(O)O)O[C@H]1c1ccc2c(NCc3ccccc3)nc(Cl)nc2c1` [Compound 34, (((((2R,3R,4R,5S)-5-(4-(benzylamino)-2-chloroquinazolin-7-yl)-3,4-dihydroxy-4-methyltetrahydrofuran-2-yl)methoxy)(hydroxy)phosphoryl)methyl)phosphonic acid] it is more than 1000 nM. `O=P(O)(O)CP(=O)(O)OC[C@H]1O[C@@H](c2ccc3c(N4CCC(c5ccccc5)C4)nc(Cl)nc3c2)[C@H](O)[C@@H]1O` (stereo partly drawn) [Compound 35, (((((2R,3S,4R,5S)-5-(2-chloro-4-(3-phenylpyrrolidin-1-yl)quinazolin-7-yl)-3,4-dihydroxytetrahydrofuran-2-yl)methoxy)(hydroxy)phosphoryl)methyl)phosphonic acid]: the IC50 fell in the range of 10 to 99 nM. Consider `O=P(O)(O)CP(=O)(O)OC[C@H]1O[C@@H](c2ccc3c(N4CCc5ccccc5C4)nc(Cl)nc3c2)[C@H](O)[C@@H]1O` [Compound 36, [({[(2R,3S,4R,5S)-5-[2-chloro-4-(3,4-dihydro-1H-isoquinolin-2-yl)quinazolin-7-yl]-3,4-dihydroxyoxolan-2-yl]methoxy}(hydroxy)phosphoryl)methyl]phosphonic acid], for which the concentration for half-maximal inhibition (IC50) is 10 to 99 nM.
